Measured values from patent US11446287B2, “Compounds and methods for EP300 or CBP modulation and indications therefor” (Opna Immuno-Oncology SA, priority 2019, dated 2022).

biological target: T1, Recombinant human BRD4 containing dual bromodomains (BRD4-BD12 (1-477)) (Homo sapiens, UniProt O60885); experiment: BRD4 Alphascreen binding assay
T1 construct: Recombinant human BRD4 containing dual bromodomains (BRD4-BD12 (1-477)); made in house; host or cells: E. coli BL21-CodonPlus (DE3), modified pET vector
Protocol: BRD4 Alphascreen Binding Assay
Binding of compounds of Formula (I) with BRD4 was assessed using Alphascreen binding assay. The inhibition of the interaction between BRD4 and its acetylated target protein was measured quantitatively using recombinant BRD4 protein, an acetylated Histone 4 peptide, and AlphaScreen™ technology. In absence of inhibition of the BRD4 protein bound to AlphaScreen™ nickel chelate acceptor beads can interact with the acetylated Histone 4 peptide which was immobilized by the AlphaScreen™ Streptavidin coated beads. This interaction brings donor and acceptor beads in proximity. The close proximity allows the singlet oxygen produced by laser excitation of the donor beads to reach the acceptor beads and generate a luminescence signal. BRD4 inhibitors result in a decrease in the proximity signal through an inhibition of the BRD4—acetylated peptide interaction.
Recombinant human BRD4 containing dual bromodomains (BRD4-BD12 (1-477)) was prepared and purified as described in protein expression and purification session. The peptide was human Histone H41-21K5AcK8AcK12AcK16Ac-Biotin (Anaspec CA, USA).
Protocol for BRD4 assay: All components are prepared in buffer composed of 50 mM HEPES pH 7.5, 50 mM NaCl, 0.01% BSA, 0.01% Triton X-100, 2 mM DTT. Test compounds and DMSO vehicle are diluted 1:50 in buffer and a 4 μL volume was transferred to an Alphaplate. 5.5 μL of Bromodomain protein and 5.5 μL of peptide are added to wells containing 4 μL of various concentrations of test compounds of Formula (I) or DMSO vehicle in an Alphaplate (PerkinElmer GA, USA) and incubated for 1 hour at room temperature. 5 μL donor and acceptor bead mixture was then added with final concentrations of 7.5 μg/ml. 30 minutes after bead addition, Alpha signal was read on the Envision spectrometer (λEx 680 nm, λEm 520-620 nm). Final concentrations of bromodomain proteins and peptide are as shown below.
All data were normalized to the mean of 16 high and 16 low control wells on each plate. A four parameter curve fit of the following formula was then applied: Y=A+((B−A)/(1+((C/x)^D))) Where ‘A’ is the minimum, ‘B’ is the maximum, ‘C’ is the IC50 and ‘D’ is the Hill slope. Protein Expression and Purification
Recombinant human BRD4 containing dual bromodomains (BRD4-BD12 (1-477)) was expressed in E. coli cells (in a modified pET vector) with an N-terminal six-His tag and purified using a combination of both IMAC (Ni-affinity) and size exclusion chromatography steps.
Recombinant BRD4 was expressed using the E. coli strain BL21-CodonPlus (DE3) (Agilent Technologies CA, USA). Cells were grown in Terrific Broth (TB) media to an OD600 of 2.0 at 37° C. at which temperature was reduced to 18° C., protein was induced with 0.1 mM isopropyl-β-D-thiogalactopyranoside (“IPTG”) for 12-18 hours and harvested by centrifugation at 8000×g for 20 minutes. Cells were re-suspended in 40 mM Tris-HCl pH 8.0, 0.5 M NaCl, 25 mM Imidazole, 5% glycerol, 1/200 vol. Protease Inhibitor Cocktail Set III (Calbiochem), 5 mM beta-mercaptoethanol (“BME”), 0.5 mg/mL Lysozyme, and 0.5 mg/mL DNaseI, incubated on ice for 30 minutes and lysed with a cell disruptor (MicroFluidics MA, USA). The lysate was clarified by centrifugation at 20,000×g for 2 hours. The protein was captured with Ni-NTA resin (Life Technologies, USA). Contaminating proteins were washed off with 40 mM Tris-HCl pH 8.0, 0.5 M NaCl, 25 mM Imidazole, 5% glycerol, and 5 mM BME. Following 3× wash steps, protein was eluted step wise into wash buffer containing 50, 100, 150, 500 mM Imidazole. The protein was further purified using Gel Filtration column 16/60 Superdex 200 (GE Biosciences NJ, USA) in 10 mM HEPES pH 8.0, 150 mM NaCl, and 5 mM DTT. Glycerol was added to a final concentration of 12% and the protein was aliquoted and flash-frozen in liquid Nitrogen.

| Structure (SMILES) | IC50 [µM] |
| --- | --- |
| Cc1noc(C)c1-c1cnc2c(CC3CCC3)cn(-c3ccc([N+](=O)[O-])cc3F)c2c1 [P-0130, 4-(3-(cyclobutylmethyl)-1-(2-fluoro-4-nitrophenyl)-1H-pyrrolo[3,2-b]pyridin-6-yl)-3,5-dimethylisoxazole] | 8 to 1000 |
| CCOc1cc(C(=O)O)cc(OCC)c1-c1cn([C@@H](C)c2ccccn2)c2ncc(-c3c(C)noc3C)cc12 [P-0147, (S)-4-(5-(3,5-dimethylisoxazol-4-yl)-1-(1-(pyridin-2-yl)ethyl)-1H-pyrrolo[2,3-b]pyridin-3-yl)-3,5-diethoxybenzoic acid] | 8 to 1000 |
| COc1cc(C(=O)O)cc(OCC(F)(F)F)c1-c1cn([C@@H](C)c2ccccn2)c2ncc(-c3c(C)noc3C)cc12 [P-0153, (S)-4-(5-(3,5-dimethylisoxazol-4-yl)-1-(1-(pyridin-2-yl)ethyl)-1H-pyrrolo[2,3-b]pyridin-3-yl)-3-methoxy-5-(2,2,2-trifluoroethoxy)benzoic acid] | 8 to 1000 |
| Cc1noc(C)c1-c1cnc2c(CC3CCC3)cn(-c3c(OC(C)C)cc(C(=O)O)cc3OC(C)C)c2c1 [P-0111, 4-(3-(cyclobutylmethyl)-6-(3,5-dimethylisoxazol-4-yl)-1H-pyrrolo[3,2-b]pyridin-1-yl)-3,5-diisopropoxybenzoic acid] | 8 to 1000 |
| Cc1noc(C)c1-c1cnc2c(c1)c(-c1ccc(C(=O)O)cc1)cn2C(c1ccccn1)c1ccccn1 [P-0012, 4-(1-(di(pyridin-2-yl)methyl)-5-(3,5-dimethylisoxazol-4-yl)-1H-pyrrolo[2,3-b]pyridin-3-yl)benzoic acid] | 8 to 1000 |
| COc1cc(C(=O)O)cc(O)c1-c1cn([C@@H](C)c2ccccn2)c2ncc(-c3c(C)noc3C)cc12 [P-0144, (S)-4-(5-(3,5-dimethylisoxazol-4-yl)-1-(1-(pyridin-2-yl)ethyl)-1H-pyrrolo[2,3-b]pyridin-3-yl)-3-hydroxy-5-methoxybenzoic acid] | 8 to 1000 |
| CCOc1cc(C(=O)O)cc(OCC)c1-n1cc(CC2CCC2)c2ncc(-c3c(C)noc3C)cc21 [P-0109, 4-(3-(cyclobutylmethyl)-6-(3,5-dimethylisoxazol-4-yl)-1H-pyrrolo[3,2-b]pyridin-1-yl)-3,5-diethoxybenzoic acid] | 1 to 8 |
| Cc1noc(C)c1-c1cnc2c(-c3cc(C(=O)O)ccc3Cl)cn(C(C)c3ccccc3)c2c1 (stereo not drawn) [P-0141, 4-chloro-3-(6-(3,5-dimethylisoxazol-4-yl)-1-(1-phenylethyl)-1H-pyrrolo[3,2-b]pyridin-3-yl)benzoic acid] | 8 to 1000 |
| COc1ccc(-n2cc(CC3CCC3)c3ncc(-c4c(C)noc4C)cc32)cn1 [P-0134, 4-(3-(cyclobutylmethyl)-1-(6-methoxypyridin-3-yl)-1H-pyrrolo[3,2-b]pyridin-6-yl)-3,5-dimethylisoxazole] | 8 to 1000 |
| Cc1noc(C)c1-c1cnc2c(c1)c(-c1ccc(C(=O)O)cn1)cn2C(C)c1ccccn1 (stereo not drawn) [P-0123, 6-(5-(3,5-dimethylisoxazol-4-yl)-1-(1-(pyridin-2-yl)ethyl)-1H-pyrrolo[2,3-b]pyridin-3-yl)nicotinic acid] | 8 to 1000 |
| CCCOc1cc(C(=O)O)cc(OCCC)c1-c1cn([C@@H](C)c2ccccn2)c2ncc(-c3c(C)noc3C)cc12 [P-0117, (S)-4-(5-(3,5-dimethylisoxazol-4-yl)-1-(1-(pyridin-2-yl)ethyl)-1H-pyrrolo[2,3-b]pyridin-3-yl)-3,5-dipropoxybenzoic acid] | 1 to 8 |
| Cc1noc(C)c1-c1cc2c(cn1)c(CC1CCC1)cn2-c1c(Cl)cc(C(=O)O)cc1Cl [P-0149, 3,5-dichloro-4-(3-(cyclobutylmethyl)-6-(3,5-dimethylisoxazol-4-yl)-1H-pyrrolo[3,2-c]pyridin-1-yl)benzoic acid] | 8 to 1000 |
| Cc1noc(C)c1-c1cnc2c(-c3ccccc3C#N)cn(C(C)(c3ccccn3)c3ccccn3)c2c1 [P-0169, 2-(1-(1,1-di(pyridin-2-yl)ethyl)-6-(3,5-dimethylisoxazol-4-yl)-1H-pyrrolo[3,2-b]pyridin-3-yl)benzonitrile] | 0.0001 to 1 |
| COc1cc(C(=O)O)cc(OC)c1-c1cn(C(C)c2ccccc2)c2cc(-c3c(C)noc3C)cnc12 (stereo not drawn) [P-0119, 4-(6-(3,5-dimethylisoxazol-4-yl)-1-(1-phenylethyl)-1H-pyrrolo[3,2-b]pyridin-3-yl)-3,5-dimethoxybenzoic acid] | 1 to 8 |
| Cc1noc(C)c1-c1cnc2c(Cc3ccccc3Cl)cn(-c3c(Cl)cc(C(=O)O)cc3Cl)c2c1 [P-0131, 3,5-dichloro-4-(3-(2-chlorobenzyl)-6-(3,5-dimethylisoxazol-4-yl)-1H-pyrrolo[3,2-b]pyridin-1-yl)benzoic acid] | 1 to 8 |
| Cc1noc(C)c1-c1cnc2c(C(=O)c3cccc(OCc4ccccc4)c3)cn(-c3c(Cl)cc(C(=O)O)cc3Cl)c2c1 [P-0133, 4-(3-(3-(benzyloxy)benzoyl)-6-(3,5-dimethylisoxazol-4-yl)-1H-pyrrolo[3,2-b]pyridin-1-yl)-3,5-dichlorobenzoic acid] | 1 to 8 |
| Cc1noc(C)c1-c1cnc2c(c1)c(-c1ccc(C(=O)O)cc1OC(F)(F)F)cn2CC1CC(F)(F)C1 [P-0157, 4-(1-((3,3-difluorocyclobutyl)methyl)-5-(3,5-dimethylisoxazol-4-yl)-1H-pyrrolo[2,3-b]pyridin-3-yl)-3-(trifluoromethoxy)benzoic acid] | 0.0001 to 1 |
| Cc1noc(C)c1-c1cnc2c(c1)c(-c1ccc(C(=O)O)cc1OCC1CC1)cn2[C@@H](C)c1ccccn1 [P-0138, (S)-3-(cyclopropylmethoxy)-4-(5-(3,5-dimethylisoxazol-4-yl)-1-(1-(pyridin-2-yl)ethyl)-1H-pyrrolo[2,3-b]pyridin-3-yl)benzoic acid] | 8 to 1000 |
| COc1cc(C(=O)O)cc(OC)c1-c1cn([C@@H](C)c2ccccn2)c2ncc(-c3c(C)noc3C)cc12 [P-0103, (S)-4-(5-(3,5-dimethylisoxazol-4-yl)-1-(1-(pyridin-2-yl)ethyl)-1H-pyrrolo[2,3-b]pyridin-3-yl)-3,5-dimethoxybenzoic acid] | 8 to 1000 |
| Cc1noc(C)c1-c1cnc2c(c1)c(-c1cc(C(=O)O)ccn1)cn2C(C)c1ccccn1 (stereo not drawn) [P-0124, 2-(5-(3,5-dimethylisoxazol-4-yl)-1-(1-(pyridin-2-yl)ethyl)-1H-pyrrolo[2,3-b]pyridin-3-yl)isonicotinic acid] | 8 to 1000 |
| COc1cc(C(=O)O)cc(OCc2ccccc2)c1-c1cn([C@@H](C)c2ccccn2)c2ncc(-c3c(C)noc3C)cc12 [P-0135, (S)-3-(benzyloxy)-4-(5-(3,5-dimethylisoxazol-4-yl)-1-(1-(pyridin-2-yl)ethyl)-1H-pyrrolo[2,3-b]pyridin-3-yl)-5-methoxybenzoic acid] | 8 to 1000 |
| CCOc1cc(C(=O)O)cc(F)c1-n1cc(CC2CCC2)c2ncc(-c3c(C)noc3C)cc21 [P-0108, 4-(3-(cyclobutylmethyl)-6-(3,5-dimethylisoxazol-4-yl)-1H-pyrrolo[3,2-b]pyridin-1-yl)-3-ethoxy-5-fluorobenzoic acid] | 1 to 8 |
| Cc1noc(C)c1-c1cnc2c(c1)c(-c1ccc(C(=O)O)cc1)cn2C(c1ccccn1)C1CCC1 (stereo not drawn) [P-0008, 4-(1-(cyclobutyl(pyridin-2-yl)methyl)-5-(3,5-dimethylisoxazol-4-yl)-1H-pyrrolo[2,3-b]pyridin-3-yl)benzoic acid] | 8 to 1000 |
| COc1ccc(C(=O)O)cc1-c1cn(C(C)c2ccccc2)c2cc(-c3c(C)noc3C)cnc12 (stereo not drawn) [P-0140, 3-(6-(3,5-dimethylisoxazol-4-yl)-1-(1-phenylethyl)-1H-pyrrolo[3,2-b]pyridin-3-yl)-4-methoxybenzoic acid] | 8 to 1000 |
